# Measured values taken from article PMC6639057 (Investigational new drugs, 2018).
# Tested on: patients with advanced solid tumors
# Assay: Adverse events
# [1] = escalation 35 mg + G-CSF (n = 3)
# [2] = escalation 40 mg + G-CSF (n = 11)
# [3] = escalation 50 mg + G-CSF (n = 4)
# [4] = escalation 1, 2, 4, 8 mg (n = 4)
# [5] = expansion 40 mg + G-CSF, CRPC (n = 12)
# [6] = expansion 40 mg + G-CSF, OC (n = 29)
# [7] = expansion 40 mg + G-CSF, TNBC (n = 14)
smiles,measurement,setting,value
Cc1csc(-c2nnc(Nc3ccc(Oc4ncccc4-c4ccnc(N)n4)cc3)c3ccccc23)c1 [AMG 900],All treatment-related AEs,[1],3 (100) n (%)
same,Fatal AEs,[1],0 n (%)
same,Grade ≥ 3 AEs,[1],2 (67) n (%)
same,Grade ≥ 3 treatment-related AEs,[1],2 (67) n (%)
same,Grade ≥ 3 treatment-related AEs: Anemia,[1],0 n (%)
same,Grade ≥ 3 treatment-related AEs: Diarrhea,[1],0 n (%)
same,Grade ≥ 3 treatment-related AEs: Fatigue,[1],0 n (%)
same,Grade ≥ 3 treatment-related AEs: Febrile neutropenia,[1],0 n (%)
same,Grade ≥ 3 treatment-related AEs: Hemoglobin decreased,[1],0 n (%)
same,Grade ≥ 3 treatment-related AEs: Leukopenia,[1],1 (33) n (%)
same,Grade ≥ 3 treatment-related AEs: Lymphopenia,[1],0 n (%)
same,Grade ≥ 3 treatment-related AEs: Nausea,[1],0 n (%)
same,Grade ≥ 3 treatment-related AEs: Neutropenia,[1],1 (33) n (%)
same,Grade ≥ 3 treatment-related AEs: Thrombocytopenia,[1],0 n (%)
same,Grade ≥ 3 treatment-related AEs: Vomiting,[1],1 (33) n (%)
same,Grade ≥ 3 treatment-related AEs: White blood cell count decreased,[1],0 n (%)
same,Grade ≥ 4 AEs,[1],1 (33) n (%)
same,Serious AEs,[1],1 (33) n (%)
same,AEs leading to discontinuation of AMG 900,[2],2 (18) n (%)
same,All treatment-emergent AEs,[2],11 (100) n (%)
same,All treatment-related AEs,[2],10 (91) n (%)
same,Fatal AEs,[2],0 n (%)
same,Grade ≥ 3 AEs,[2],8 (73) n (%)
same,Grade ≥ 3 treatment-related AEs,[2],6 (55) n (%)
same,Grade ≥ 3 treatment-related AEs: Anemia,[2],0 n (%)
same,Grade ≥ 3 treatment-related AEs: Diarrhea,[2],2 (18) n (%)
same,Grade ≥ 3 treatment-related AEs: Fatigue,[2],0 n (%)
same,Grade ≥ 3 treatment-related AEs: Febrile neutropenia,[2],2 (18) n (%)
same,Grade ≥ 3 treatment-related AEs: Hemoglobin decreased,[2],0 n (%)
same,Grade ≥ 3 treatment-related AEs: Leukopenia,[2],1 (9) n (%)
same,Grade ≥ 3 treatment-related AEs: Lymphopenia,[2],1 (9) n (%)
same,Grade ≥ 3 treatment-related AEs: Nausea,[2],0 n (%)
same,Grade ≥ 3 treatment-related AEs: Neutropenia,[2],5 (46) n (%)
same,Grade ≥ 3 treatment-related AEs: Thrombocytopenia,[2],1 (9) n (%)
same,Grade ≥ 3 treatment-related AEs: Vomiting,[2],0 n (%)
same,Grade ≥ 3 treatment-related AEs: White blood cell count decreased,[2],0 n (%)
same,Grade ≥ 4 AEs,[2],4 (36) n (%)
same,Serious AEs,[2],3 (27) n (%)
same,AEs leading to discontinuation of AMG 900,[3],2 (50) n (%)
same,All treatment-emergent AEs,[3],4 (100) n (%)
same,All treatment-related AEs,[3],4 (100) n (%)
same,Fatal AEs,[3],1 (25) n (%)
same,Grade ≥ 3 AEs,[3],3 (75) n (%)
same,Grade ≥ 3 treatment-related AEs,[3],3 (75) n (%)
same,Grade ≥ 3 treatment-related AEs: Anemia,[3],1 (25) n (%)
same,Grade ≥ 3 treatment-related AEs: Diarrhea,[3],0 n (%)
same,Grade ≥ 3 treatment-related AEs: Fatigue,[3],2 (50) n (%)
same,Grade ≥ 3 treatment-related AEs: Febrile neutropenia,[3],1 (25) n (%)
same,Grade ≥ 3 treatment-related AEs: Hemoglobin decreased,[3],0 n (%)
same,Grade ≥ 3 treatment-related AEs: Leukopenia,[3],1 (25) n (%)
same,Grade ≥ 3 treatment-related AEs: Lymphopenia,[3],0 n (%)
same,Grade ≥ 3 treatment-related AEs: Nausea,[3],0 n (%)
same,Grade ≥ 3 treatment-related AEs: Neutropenia,[3],1 (25) n (%)
same,Grade ≥ 3 treatment-related AEs: Thrombocytopenia,[3],1 (25) n (%)
same,Grade ≥ 3 treatment-related AEs: Vomiting,[3],0 n (%)
same,Grade ≥ 3 treatment-related AEs: White blood cell count decreased,[3],0 n (%)
same,Grade ≥ 4 AEs,[3],2 (50) n (%)
same,Serious AEs,[3],2 (50) n (%)
same,AEs leading to discontinuation of AMG 900,[4],0 n (%)
same,All treatment-emergent AEs,[4],4 (100) n (%)
same,All treatment-related AEs,[4],3 (75) n (%)
same,Fatal AEs,[4],0 n (%)
same,Grade ≥ 3 AEs,[4],1 (25) n (%)
same,Grade ≥ 3 treatment-related AEs,[4],1 (25) n (%)
same,Grade ≥ 3 treatment-related AEs: Anemia,[4],1 (25) n (%)
same,Grade ≥ 3 treatment-related AEs: Diarrhea,[4],0 n (%)
same,Grade ≥ 3 treatment-related AEs: Fatigue,[4],0 n (%)
same,Grade ≥ 3 treatment-related AEs: Febrile neutropenia,[4],0 n (%)
same,Grade ≥ 3 treatment-related AEs: Hemoglobin decreased,[4],0 n (%)
same,Grade ≥ 3 treatment-related AEs: Leukopenia,[4],0 n (%)
same,Grade ≥ 3 treatment-related AEs: Lymphopenia,[4],0 n (%)
same,Grade ≥ 3 treatment-related AEs: Nausea,[4],0 n (%)
same,Grade ≥ 3 treatment-related AEs: Neutropenia,[4],0 n (%)
same,Grade ≥ 3 treatment-related AEs: Thrombocytopenia,[4],0 n (%)
same,Grade ≥ 3 treatment-related AEs: Vomiting,[4],0 n (%)
same,Grade ≥ 3 treatment-related AEs: White blood cell count decreased,[4],0 n (%)
same,Grade ≥ 4 AEs,[4],0 n (%)
same,Serious AEs,[4],0 n (%)
same,AEs leading to discontinuation of AMG 900,[5],3 (25) n (%)
same,All treatment-emergent AEs,[5],12 (100) n (%)
same,All treatment-related AEs,[5],12 (100) n (%)
same,Fatal AEs,[5],0 n (%)
same,Grade ≥ 3 AEs,[5],9 (75) n (%)
same,Grade ≥ 3 treatment-related AEs,[5],6 (50) n (%)
same,Grade ≥ 3 treatment-related AEs: Anemia,[5],2 (17) n (%)
same,Grade ≥ 3 treatment-related AEs: Diarrhea,[5],0 n (%)
same,Grade ≥ 3 treatment-related AEs: Fatigue,[5],2 (17) n (%)
same,Grade ≥ 3 treatment-related AEs: Febrile neutropenia,[5],0 n (%)
same,Grade ≥ 3 treatment-related AEs: Hemoglobin decreased,[5],1 (8) n (%)
same,Grade ≥ 3 treatment-related AEs: Leukopenia,[5],0 n (%)
same,Grade ≥ 3 treatment-related AEs: Lymphopenia,[5],1 (8) n (%)
same,Grade ≥ 3 treatment-related AEs: Nausea,[5],2 (17) n (%)
same,Grade ≥ 3 treatment-related AEs: Neutropenia,[5],3 (25) n (%)
same,Grade ≥ 3 treatment-related AEs: Thrombocytopenia,[5],1 (8) n (%)
same,Grade ≥ 3 treatment-related AEs: Vomiting,[5],0 n (%)
same,Grade ≥ 3 treatment-related AEs: White blood cell count decreased,[5],0 n (%)
same,Grade ≥ 4 AEs,[5],2 (17) n (%)
same,Serious AEs,[5],4 (33) n (%)
same,AEs leading to discontinuation of AMG 900,[6],5 (17) n (%)
same,All treatment-emergent AEs,[6],29 (100) n (%)
same,All treatment-related AEs,[6],28 (97) n (%)
same,Fatal AEs,[6],0 n (%)
same,Grade ≥ 3 AEs,[6],25 (86) n (%)
same,Grade ≥ 3 treatment-related AEs,[6],22 (76) n (%)
same,Grade ≥ 3 treatment-related AEs: Anemia,[6],12 (41) n (%)
same,Grade ≥ 3 treatment-related AEs: Diarrhea,[6],1 (3) n (%)
same,Grade ≥ 3 treatment-related AEs: Fatigue,[6],1 (3) n (%)
same,Grade ≥ 3 treatment-related AEs: Febrile neutropenia,[6],6 (21) n (%)
same,Grade ≥ 3 treatment-related AEs: Hemoglobin decreased,[6],2 (7) n (%)
same,Grade ≥ 3 treatment-related AEs: Leukopenia,[6],3 (10) n (%)
same,Grade ≥ 3 treatment-related AEs: Lymphopenia,[6],1 (3) n (%)
same,Grade ≥ 3 treatment-related AEs: Nausea,[6],0 n (%)
same,Grade ≥ 3 treatment-related AEs: Neutropenia,[6],17 (59) n (%)
same,Grade ≥ 3 treatment-related AEs: Thrombocytopenia,[6],6 (21) n (%)
same,Grade ≥ 3 treatment-related AEs: Vomiting,[6],1 (3) n (%)
same,Grade ≥ 3 treatment-related AEs: White blood cell count decreased,[6],2 (7) n (%)
same,Grade ≥ 4 AEs,[6],12 (41) n (%)
same,Serious AEs,[6],14 (48) n (%)
same,AEs leading to discontinuation of AMG 900,[7],5 (36) n (%)
same,All treatment-emergent AEs,[7],14 (100) n (%)
same,All treatment-related AEs,[7],13 (93) n (%)
same,Fatal AEs,[7],3 (21) n (%)
same,Grade ≥ 3 AEs,[7],11 (79) n (%)
same,Grade ≥ 3 treatment-related AEs,[7],6 (43) n (%)
same,Grade ≥ 3 treatment-related AEs: Anemia,[7],4 (29) n (%)
same,Grade ≥ 3 treatment-related AEs: Diarrhea,[7],1 (7) n (%)
same,Grade ≥ 3 treatment-related AEs: Fatigue,[7],0 n (%)
same,Grade ≥ 3 treatment-related AEs: Febrile neutropenia,[7],1 (7) n (%)
same,Grade ≥ 3 treatment-related AEs: Hemoglobin decreased,[7],0 n (%)
same,Grade ≥ 3 treatment-related AEs: Leukopenia,[7],0 n (%)
same,Grade ≥ 3 treatment-related AEs: Lymphopenia,[7],0 n (%)
same,Grade ≥ 3 treatment-related AEs: Nausea,[7],1 (7) n (%)
same,Grade ≥ 3 treatment-related AEs: Neutropenia,[7],4 (29) n (%)
same,Grade ≥ 3 treatment-related AEs: Thrombocytopenia,[7],1 (7) n (%)
same,Grade ≥ 3 treatment-related AEs: Vomiting,[7],0 n (%)
same,Grade ≥ 3 treatment-related AEs: White blood cell count decreased,[7],0 n (%)
same,Grade ≥ 4 AEs,[7],5 (36) n (%)
same,Serious AEs,[7],7 (50) n (%)
